Data on 14 molecules can be found in patent US9999616B2 (ZENITH EPIGENETICS LTD., priority 2013, dated 2018).

Molecules are shown by their SMILES.

One series has as its system hApoA-1 mRNA. Kind of series: Up-regulation of hApoA-1 mRNA transcription in Huh7 cells. The settings on record: Homo sapiens, Huh-7, EC170 of hApoA-1 mRNA up-regulation, 48 h, read-out: ApoA-1 activity. Format: cell-based. Here is the method:
Huh7 cells (2.5×10^5 per well) were plated in a 96-well plate using 100 μL DMEM per well, (Gibco DMEM supplemented with penicillin/streptomycin and 10% FBS), 72 h before the addition of the compound. The cells are treated with increasing concentrations of the compound or DMSO (0.1%), and incubated at 37° C., 5% CO2 for 48 h. Spent media was removed from the Huh-7 cells and placed on ice for immediate use with the “LDH cytotoxicity assay Kit II” from Abcam. The cells remaining in the plate were rinsed with 100 μL PBS. Cells were harvested using the mRNA Catcher PLUS kit according to manufacturer's instructions. The eluted mRNA was then used in a one-step quantitative real-time PCR reaction, using components of the RNA UltraSense™ One-Step Kit (Life Technologies) together with Applied Biosystems TaqMan® primer-probes for hApoA-1 and Cyclophilin. Real-time PCR plates were run on a ViiA™7 real time PCR machine (Applied Biosystems), data was analyzed, normalizing the Ct values for hApoA-1 to an internal control, prior to determining the fold induction of each unknown sample, relative to the control.

In series [1] the target is Brd4 bromodomain 1 (BRD4(1)) (Homo sapiens, UniProt O60885). Kind of series: Inhibition of tetra-acetylated histone H4 binding to Brd4 bromodomain 1, measured by FRET (HTRF). On the set-up: made in house; host or cells: E. coli BL21(DE3). The settings on record: 2 h at room temperature. In a few lines:
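N-terminally His-tagged bromodomain (200 nM), expressed in E. coli and purified by Ni affinity and size exclusion, was incubated with biotinylated tetra-acetylated H4 peptide (25-50 nM), Eu-cryptate streptavidin and XL665 anti-His in HEPES pH 7.4 buffer with 0.2% DMSO. Reactions ran 2 h at room temperature. IC50 came from the 665/620 nm fluorescence decrease.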
In general terms: TR-FRET usually uses a lanthanide donor and a delayed reading to cut background.

In another series the test system is hIL-6 mRNA. Kind of series: Inhibition of hIL-6 mRNA transcription in LPS-stimulated U937 macrophages. Format: cell-based, Human. The note with it: Homo sapiens, U-937, PMA-differentiated U937 cells, 1 h pretreatment, LPS 3 h, read-out: IL-6 activity. The gist of the method: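 PMA-differentiated U937 macrophages (60 ng/mL PMA, 3 days) pretreated 1 h with compound in 0.1% DMSO, then stimulated with 1 ug/mL E. coli LPS for 3 h at 37° C. IL-6 mRNA quantified by one-step TaqMan qRT-PCR, normalized to cyclophilin; fold expression relative to control, triplicate wells.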

Another series has as its system hIL-17 mRNA. Kind of series: Inhibition of hIL-17 mRNA transcription in OKT3-stimulated peripheral blood mononuclear cells. The format is cell-based. The settings on record: human PBMC, OKT3 stimulation 6 h, read-out: IL-17 Activity. As to the method:
Human peripheral blood mononuclear cells were plated (2.0×10^5 cells per well) in a 96-well plate in 45 μL OpTimizer T Cell expansion media (Life Technologies) containing 20 ng/ml IL-2 and penicillin/streptomycin. The cells were treated with increasing concentrations of the test compound or DMSO (0.1%), and incubated at 37° C., 5% CO2 for 1 h before addition of 10× stock OKT3 antibody at 10 ug/ml in media. Triplicate wells were used for each concentration. Cells were incubated at 37° C., 5% CO2 for 6 h before the cells were harvested. At time of harvest, cells were pelleted by centrifugation at 800 rpm for 5 min. Cells were harvested using the mRNA Catcher PLUS kit according to manufacturer's instructions. The eluted mRNA was then used in a one-step quantitative real-time PCR reaction, using components of the RNA UltraSense™ One-Step Kit (Life Technologies) together with Applied Biosystems TaqMan® primer-probes for hIL-17 and Cyclophilin. Real-time PCR plates were run on a ViiA™7 real time PCR machine (Applied Biosystems), data was analyzed, normalizing the Ct values for hIL-17 to an internal control, prior to determining the fold induction of each unknown sample, relative to the control.

The next series relates to Human AML MV-4-11 cells. Kind of series: Inhibition of cell proliferation in MV4-11 cells (CellTiter Aqueous One). The format is cell-based. The settings on record: MV4-11, 72 h. In a few lines:
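MV4-11 cells, 5×10^4 per well in IMDM with 10% FBS, were exposed to increasing compound concentrations or 0.1% DMSO for 72 h at 37 °C in triplicate. Viability was read by MTS (CellTiter Aqueous One) absorbance at 490 nm after 3-4 h. IC50 was derived from background-corrected signal relative to DMSO.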

The subject of series [2] is c-myc in Human AML MV4-11 cells. Description: Inhibition of cMYC expression (mRNA, real-time PCR) in MV4-11 cells. The format is cell-based. The settings on record: 3 h treatment, cMYC mRNA by real-time PCR. In a few lines: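 MV4-11 cells in IMDM with 10% FBS were treated with increasing compound concentrations (DMSO 0.1%) for 3 h at 37 °C, in triplicate. Isolated mRNA was quantified by one-step TaqMan RT-qPCR, cMYC Ct normalized to cyclophilin, and fold expression given relative to DMSO control.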

The next series deals with MV4-11 cells. Kind of series: In vivo efficacy in athymic nude mouse acute myeloid leukemia xenograft model using MV4-11 cells. The settings on record: athymic nude mouse AML xenograft (MV4-11), oral dosing. As to the method: MV4-11 cells (ATCC) were grown under standard cell culture conditions and (NCr) nu/nu fisol strain of female mice age 6-7 weeks were injected with 5×10^6 cells/animal in 100 μL PBS+100 μL Matrigel in the lower left abdominal flank. By approximately day 18-21 after MV4-11 cells injection, mice were randomized based on tumor volume (L×W×H)/2) of average ˜100-300 mm^3. Mice were dosed orally with compound at 5 to 120 mg/kg b.i.d and/or q.d. on a continuous dosing schedule and at 2.5 to 85 mg/kg q.d. on a 5 day on 2 day off, 100 mg/kg q.d. on a 4 day on and 3 day off, 135 mg/kg q.d. on a 3 day on and 4 day off, 180 mg/kg on a 2 day on and 5 day off and 240 mg/kg on a 1 day on and 6 days off dosing schedules in EA006 formulation at 10 mL/kg body weight dose volume. Tumor measurements were taken with electronic micro calipers and body weights measured on alternate days beginning from dosing period. The average tumor volumes, percent Tumor Growth Inhibition (TGI) and % change in body weights were compared relative to Vehicle control animals. The means, statistical analysis and the comparison between groups were calculated using Student's t-test in Excel.

Consider `Cc1noc(C)c1-c1cc(NCc2ccccc2)c2nc[nH]c2c1` [Example Compound 4], for which the EC170 with hApoA-1 mRNA lay within 3 to 30 µM. Besides, the IC50 in series [1] is not above 300 nM; in the series with hIL-6 mRNA, 300 to 3000 nM; in the series on hIL-17 mRNA, 300 to 3000 nM; in the series on Human AML MV-4-11 cells it was 300 to 3000 nM; in series [2], 300 to 3000 nM.

With `Cc1noc(C)c1-c1nc(NCc2ccccc2)c2ccccc2n1` [Example Compound 5, N-benzyl-2-(3,5-dimethylisoxazol-4-yl)quinazolin-4-amine], the EC170 in the series with hApoA-1 mRNA is not above 0.3 µM. In series [1], the IC50 lay within 3000 to 30000 nM.

Take `Cc1noc(C)c1-c1cc(-c2c(C)nn(C)c2C)c2nc[nH]c2c1` [Example Compound 9, 3,5-dimethyl-4-(4-(1,3,5-trimethyl-1H-pyrazol-4-yl)-1H-benzo[d]imidazol-6-yl)isoxazole]: the IC50 in series [1] was not above 300 nM; with hIL-6 mRNA, not above 300 nM; with hIL-17 mRNA, not above 300 nM; with Human AML MV-4-11 cells, 300 to 3000 nM; in series [2] it was 300 to 3000 nM. Also, the In vivo activity result in the series with MV4-11 cells was “Active”.

For `Cc1nn(C)c(C)c1CNc1cc(-c2c(C)noc2C)cc2[nH]cnc12` [Example Compound 37, 6-(3,5-dimethyl-isoxazol-4-yl)-N-((1,3,5-trimethyl-1H-pyrazol-4-yl)methyl)-1H-benzo[d] imidazol-4-amine], the EC170 in the series with hApoA-1 mRNA was not above 0.3 µM. The IC50 in series [1] is not above 300 nM; with hIL-6 mRNA it was 300 to 3000 nM; with hIL-17 mRNA, 300 to 3000 nM; with Human AML MV-4-11 cells it was 300 to 3000 nM; in series [2] it was 300 to 3000 nM.

For the molecule `Cc1noc(C)c1-c1cc(-c2cccc(C#N)c2C)c2nc[nH]c2c1` [Example Compound 57, 3-(6-(3,5-dimethyl-isoxazol-4-yl)-1H-benzo[d]imidazol-4-yl)-2-methyl-benzonitrile], the EC170 with hApoA-1 mRNA was not above 0.3 µM. Moreover, the IC50 in series [1] was not above 300 nM; in the series with hIL-6 mRNA, not above 300 nM; with hIL-17 mRNA it was 300 to 3000 nM; in the series with Human AML MV-4-11 cells, not above 300 nM; in series [2], not above 300 nM.

Take `Cc1nc2c(-c3cn(C)nc3C)cc(-c3c(C)noc3C)cc2[nH]1` [Example Compound 60, 4-(4-(1,3-dimethyl-1H-pyrazol-4-yl)-2-methyl-1H-benzo[d]imidazol-6-yl)-3,5-dimethyl-isoxazole]: the EC170 in the series on hApoA-1 mRNA is not above 0.3 µM. The IC50 in series [1] was not above 300 nM; in the series with hIL-6 mRNA, not above 300 nM; in the series with hIL-17 mRNA, 300 to 3000 nM; with Human AML MV-4-11 cells, 300 to 3000 nM; in series [2] it was not above 300 nM.

With `Cc1nc2c(-c3c(C)cncc3C)cc(-c3c(C)noc3C)cc2[nH]1` [Example Compound 97, 4-(4-(3,5-dimethyl-pyridin-4-yl)-2-methyl-1H-benzo[d]imidazol-6-yl)-3,5-dimethyl isoxazole], the EC170 in the series on hApoA-1 mRNA is not above 0.3 µM. The IC50 in series [1] is not above 300 nM; with hIL-6 mRNA, not above 300 nM; with hIL-17 mRNA it was 300 to 3000 nM; in the series on Human AML MV-4-11 cells it was 300 to 3000 nM; in series [2], 300 to 3000 nM.

A word on the melting point: it is the temperature, or range, at which the solid turns liquid. `Cc1noc(C)c1-c1cc(-c2c(C)nn(C)c2C)c2nc(N3CCN(C)CC3)[nH]c2c1` [Example Compound 181, 3,5-dimethyl-4-(2-(4-methylpiperazin-1-yl)-4-(1,3,5-trimethyl-1H-pyrazol-4-yl)-1H benzo[d]imidazol-6-yl)isoxazole] had a melting point of 195 to 197 °C. For the same molecule, the IC50 in series [1] is not above 300 nM. Moreover, the IC50 in the series on hIL-6 mRNA is not above 300 nM. Also, the IC50 in the series with Human AML MV-4-11 cells is not above 300 nM. Also, in series [2], the IC50 is not above 300 nM.

Regarding `Cc1ccc(C#N)cc1-c1cc(-c2c(C)noc2C)cc2[nH]c(N3CCN(C)CC3)nc12` [Example Compound 186, 3-(6-(3,5-dimethylisoxazol-4-yl)-2-(4-methylpiperazin-1-yl)-1H-benzo[d]imidazol-4-yl)-4-methylbenzonitrile], the melting point lay within 133 to 135 °C. Besides, in series [1], the IC50 was not above 300 nM. Also, the IC50 in the series with Human AML MV-4-11 cells is not above 300 nM. The molecule also had an IC50 in series [2] not above 300 nM.

In the case of `Cc1ccc(C(N)=O)cc1-c1cc(-c2c(C)noc2C)cc2[nH]c(N3CCN(C)CC3)nc12` [Example Compound 189, 3-(6-(3,5-dimethylisoxazol-4-yl)-2-(4-methylpiperazin-1-yl)-1H-benzo[d]imidazol-4-yl)-4-methylbenzamide], the melting point lay in the range of 133 to 135 °C. Further, the IC50 in series [1] was not above 300 nM. The IC50 with Human AML MV-4-11 cells lay within 300 to 3000 nM. Also, the IC50 in series [2] is 300 to 3000 nM.

In the case of `Cc1noc(C)c1-c1cc(-c2c(C)noc2C)c2nc[nH]c2c1Br` [Example Compound 192, 4,4′-(7-bromo-1H-benzo[d]imidazole-4,6-diyl)bis(3,5-dimethylisoxazole)], the melting point is 133 to 135 °C. In series [1], the IC50 is not above 300 nM. This molecule yielded an IC50 in the series with Human AML MV-4-11 cells of 3000 to 30000 nM. The molecule further registered an IC50 in series [2] of 300 to 3000 nM.

Molecule `Cc1noc(C)c1-c1cc(-c2c(C)nn(C)c2C)c2[nH]c(S(C)(=O)=O)nc2c1` [Example Compound 195, 3,5-dimethyl-4-(2-(methylsulfonyl)-4-(1,3,5-trimethyl-1H-pyrazol-4-yl)-1H-benzo[d]imidazol-6-yl)isoxazole] showed a melting point of 254 to 256 °C. Further, the IC50 in series [1] is not above 300 nM. For the same molecule, the IC50 with Human AML MV-4-11 cells lay in the range of 300 to 3000 nM. In addition, in series [2], the IC50 fell in the range of 300 to 3000 nM.

In the case of `Cc1ccncc1-c1cc(-c2c(C)noc2C)cc2[nH]c(N3CCOCC3)nc12` [Example Compound 196, 4-(6-(3,5-dimethylisoxazol-4-yl)-4-(4-methylpyridin-3-yl)-1H-benzo[d]imidazol-2-yl)morpholine], the melting point fell in the range of 137 to 141 °C. For the same molecule, the IC50 in series [1] was in the range of 300 to 3000 nM. This molecule yielded an IC50 with Human AML MV-4-11 cells of 300 to 3000 nM. The IC50 in series [2] fell in the range of 300 to 3000 nM.

For the molecule `Cc1noc(C)c1-c1cc(-c2cccc(C#N)c2C)c2nc(N3CCN(C)CC3)[nH]c2c1` [Example Compound 202, 3-(6-(3,5-dimethylisoxazol-4-yl)-2-(4-methylpiperazin-1-yl)-1H-benzo[d]imidazol-4-yl)-2-methylbenzonitrile], the melting point lay within 179 to 182 °C. The IC50 in series [1] lay within 300 to 3000 nM. The IC50 in the series on Human AML MV-4-11 cells was not above 300 nM. Besides, the IC50 in series [2] was not above 300 nM.
